Experimental data taken from publication PMC5931107, “Clinical pharmacodynamic/exposure characterisation of the multikinase inhibitor ilorasertib (ABT-348) in a phase 1 dose-escalation trial” (British Journal of Cancer, 2018).
Like-named read-outs stand apart in the source and are kept apart here.

Test: Plasma pharmacokinetics, Arm II (oral BID), phase 1 trial
Format: in vivo, human
Settings: for half-life: read-out: t1/2 (harmonic mean) (converted); for Cmax: read-out: Cmax
Experimental: Pharmacokinetics of ilorasertib were evaluated in the dose-escalation cohort on blood samples that were collected on cycle 1 days 1 and 15. Parameters determined: Cmax, time to Cmax (Tmax), terminal phase elimination half-life (t1/2), clearance, apparent oral clearance (CL/F), and area under the plasma concentration-time curve from time 0 to time of last measurable concentration (AUCt) and from time 0 to infinity (AUC∞). For Arm I, blood samples were collected prior to dosing and at 0.5, 1, 2, 3, 4, 6, 8, 10 or 12, and 24 h after dosing on cycle 1 days 1 and 15; of note, for institutions not able to collect the 10- or 12-h post-dose sample, the 24-h sample was replaced with 22-h and 28-h post-dose samples. In Arm II, for the first dose, blood samples were collected pre-dose and at 1, 2, 3, and 4 h post-dose on cycle 1 days 1 and 15; for the second dose, samples were collected pre-dose and at 1, 2, 3, 4, 18, and 24 h after second dose on cycle 1 days 1 and 15. In Arm III, blood samples were collected prior to infusion, at 1 h 55 min (just before end of infusion), and at 0.5, 1, 2, 4, 6, 8, 10, and 24 h after end of infusion on cycle 1 days 1 and 15; here also, for institutions not able to collect the 8-h or 10-h after-end-of-infusion samples, the 24-h sample was replaced with 22-h and 28-h post-dose samples. The liquid chromatography (LC)-mass spectrometry (MS)/MS method was developed and validated in the Bioanalysis Department of AbbVie. Fifty microliter of human plasma (K2EDTA as anticoagulant) was fortified with 300 μL of deuterium-stable labelled internal standard and mixed well. A HybridSPE precipitation plate (50 mg/96 wells, Supelco Analytical, Munich, Germany) was used to directly load and elute (under slight vacuum) the fortified samples into a clean collection plate. Samples were dried before reconstitution with 100 μL of 20/80 (v/v) acetonitrile/water, and injected for LC-MS/MS analysis. A Halo C8 (Wilmington, DE, USA; 2.7 μm, 2.1 × 30 mm) was used on an Agilent 1290 Infinity UPLC pump (Agilent Technologies, Santa Clara, CA) to carry out the separation. An isocratic condition with 25/75/0.1 (v/v/v) acetonitrile/water/98% formic acid was used as the mobile phase. The flow rate was set to be 0.6 mL/min. An MPS 3 C ([…] Ruhr, Germany) autosampler was used to introduce samples onto the UPLC system. An API 4000 mass spectrometer (Applied Biosystems, Foster City, CA) was used in the multiple reactions monitoring mode for the detection and quantitation of analyte. Descriptive statistics were used for demographic variables. The numbers and percentages of patients with treatment-emergent AEs (TEAEs) were tabulated using the Medical Dictionary for Regulatory Activities version 16.0 system organ class and preferred term, and further classified according to CTCAE version 4.0 criteria. The safety data set included all patients who received one or more doses of ilorasertib. The pharmacokinetic data set included all patients who received one or more doses of ilorasertib and had one or more pharmacokinetic samples. Values for pharmacokinetic parameters were determined using non-compartmental methods, with data analysed separately for each arm. A repeated measures analysis was performed for Tmax and dose-normalised Cmax, AUCt, and AUC∞. The model included random effects for patient and fixed effects for dose level, day, and the interaction of dose level and day. To assess effects of exposure on pharmacodynamic biomarkers, Cmax was employed as the directly measured marker of exposure for the rapid changes in DBP and PlGF pre-steady-state, while AUC∞ reflected exposure variability at the time of post-multiple-dose skin biopsy. Descriptive statistics were used to summarise ECOG performance status. The efficacy data set included all patients who received one or more doses of ilorasertib.

[1] = human, plasma, po, 40 mg, Arm II PO BID 40 mg, day 1, N=2, mean (individual)
[2] = human, plasma, po, 40 mg, Arm II PO BID 40 mg, day 1, N=3
[3] = human, plasma, po, 40 mg, Arm II PO BID 40 mg, day 15, N=3
[4] = human, plasma, po, 60 mg, Arm II PO BID 60 mg, day 1, N=3
[5] = human, plasma, po, 60 mg, Arm II PO BID 60 mg, day 15, N=1
[6] = human, plasma, po, 60 mg, Arm II PO BID 60 mg, day 15, N=3
[7] = human, plasma, po, 90 mg, Arm II PO BID 90 mg, day 1, N=2, mean (individual)
[8] = human, plasma, po, 90 mg, Arm II PO BID 90 mg, day 15, N=3
[9] = human, plasma, po, 130 mg, Arm II PO BID 130 mg, day 1, N=3
[10] = human, plasma, po, 130 mg, Arm II PO BID 130 mg, day 1, N=4
[11] = human, plasma, po, 130 mg, Arm II PO BID 130 mg, day 15, N=1
[12] = human, plasma, po, 130 mg, Arm II PO BID 130 mg, day 15, N=3
[13] = human, plasma, po, 190 mg, Arm II PO BID 190 mg, day 15, N=2, mean (individual)
[14] = human, plasma, po, 190 mg, Arm II PO BID 190 mg, day 15, N=5
[15] = human, plasma, po, 230 mg, Arm II PO BID 230 mg, day 1, N=2, mean (individual)
[16] = human, plasma, po, 230 mg, Arm II PO BID 230 mg, day 1, N=3
[17] = human, plasma, po, 230 mg, Arm II PO BID 230 mg, day 15, N=1
[18] = human, plasma, po, 230 mg, Arm II PO BID 230 mg, day 15, N=4
[19] = human, plasma, po, 340 mg, Arm II PO BID 340 mg, day 1, N=1
[20] = human, plasma, po, 340 mg, Arm II PO BID 340 mg, day 1, N=3
[21] = human, plasma, po, 340 mg, Arm II PO BID 340 mg, day 15, N=1

With Nc1ncc(-c2cnn(CCO)c2)c2scc(-c3ccc(NC(=O)Nc4cccc(F)c4)cc3)c12 [ilorasertib, Ilorasertib] the Tmax (Arm II, oral administration in two divided doses, versus Arm I) was “delayed by several hours”, the AUC(0-inf) [1] was 3990 ng·h/mL and the half-life [1] was 11 h. The AUC(0-t) [2] was 3720 ± 1640 ng·h/mL, the Cmax [2] was 250 ± 120 ng/mL and the Tmax (human, plasma, po, 40 mg, Arm II PO BID 40 mg, day 1, N=3, read-out: Tmax) was 7.3 ± 3.8 h. For the same compound, the AUC(0-t) [3] was 3750 ± 2050 ng·h/mL, the Cmax [3] was 190 ± 110 ng/mL and the Tmax (human, plasma, po, 40 mg, Arm II PO BID 40 mg, day 15, N=3, read-out: Tmax) was 10 h. It also gave an AUC(0-t) [4] of 5450 ± 1460 ng·h/mL, a Cmax [4] of 380 ± 140 ng/mL and a Tmax (human, plasma, po, 60 mg, Arm II PO BID 60 mg, day 1, N=3, read-out: Tmax) of 5.7 ± 3.8 h. It also gave an AUC(0-inf) [5] of 5430 ng·h/mL, a half-life [5] of 11.8 h and an AUC(0-t) [6] of 2920 ± 710 ng·h/mL. It also gave a Cmax [6] of 230 ± 60 ng/mL, a Tmax (human, plasma, po, 60 mg, Arm II PO BID 60 mg, day 15, N=3, read-out: Tmax) of 4.8 ± 2.8 h and an AUC(0-inf) [7] of 4030 ng·h/mL. For the same compound, the half-life [7] was 10.1 h, the AUC(0-t) (human, plasma, po, 90 mg, Arm II PO BID 90 mg, day 1, N=3) was 3920 ± 1530 ng·h/mL and the Tmax (human, plasma, po, 90 mg, Arm II PO BID 90 mg, day 1, N=3, read-out: Tmax) was 9 ± 1 h. The AUC(0-inf) (human, plasma, po, 90 mg, Arm II PO BID 90 mg, day 15, N=2, mean (individual)) was 5330 ng·h/mL, the AUC(0-t) [8] was 4060 ± 1510 ng·h/mL and the Cmax [8] was 320 ± 100 ng/mL. For the same compound, the Tmax (human, plasma, po, 90 mg, Arm II PO BID 90 mg, day 15, N=3, read-out: Tmax) was 7.6 ± 5.4 h, the AUC(0-inf) [9] was 6530 ± 4460 ng·h/mL and the half-life [9] was 18.6 ± 17.6 h. The AUC(0-t) [10] was 5070 ± 3180 ng·h/mL, the Cmax [10] was 600 ± 390 ng/mL and the Tmax (human, plasma, po, 130 mg, Arm II PO BID 130 mg, day 1, N=4, read-out: Tmax) was 7.5 ± 1.7 h. For the same compound, the AUC(0-inf) [11] was 3960 ng·h/mL, the half-life [11] was 7.5 h and the AUC(0-t) [12] was 2400 ± 1290 ng·h/mL. For the same compound, the Cmax [12] was 260 ± 280 ng/mL, the Tmax (human, plasma, po, 130 mg, Arm II PO BID 130 mg, day 15, N=3, read-out: Tmax) was 11 ± 11.5 h and the AUC(0-inf) (human, plasma, po, 190 mg, Arm II PO BID 190 mg, day 1, N=4) was 17800 ± 11300 ng·h/mL. For the same compound, the Cmax (human, plasma, po, 190 mg, Arm II PO BID 190 mg, day 1, N=7) was 540 ± 280 ng/mL, the Tmax (human, plasma, po, 190 mg, Arm II PO BID 190 mg, day 1, N=7, read-out: Tmax) was 10.2 ± 6.7 h and the AUC(0-inf) [13] was 10700 ng·h/mL. The half-life [13] was 8.4 h, the AUC(0-t) [14] was 6690 ± 5220 ng·h/mL and the Cmax [14] was 630 ± 380 ng/mL. It also gave a Tmax (human, plasma, po, 190 mg, Arm II PO BID 190 mg, day 15, N=5, read-out: Tmax) of 13.2 ± 10.2 h, an AUC(0-inf) [15] of 9140 ng·h/mL and a half-life [15] of 9 h. For the same compound, the AUC(0-t) [16] was 10100 ± 3620 ng·h/mL, the Cmax [16] was 700 ± 230 ng/mL and the Tmax (human, plasma, po, 230 mg, Arm II PO BID 230 mg, day 1, N=3, read-out: Tmax) was 8.7 ± 1.2 h. The AUC(0-inf) [17] was 13000 ng·h/mL, the half-life [17] was 8 h and the AUC(0-t) [18] was 11200 ± 4340 ng·h/mL. The Cmax [18] was 790 ± 460 ng/mL, the Tmax (human, plasma, po, 230 mg, Arm II PO BID 230 mg, day 15, N=4, read-out: Tmax) was 9.5 ± 0.6 h and the AUC(0-inf) [19] was 98800 ng·h/mL. For the same compound, the half-life [19] was 39.6 h, the AUC(0-t) [20] was 39300 ± 14800 ng·h/mL and the Cmax [20] was 2040 ± 870 ng/mL. The Tmax (human, plasma, po, 340 mg, Arm II PO BID 340 mg, day 1, N=3, read-out: Tmax) was 15 ± 8 h, the AUC(0-t) [21] was 15700 ng·h/mL and the Cmax [21] was 770 ng/mL. It also gave a Tmax (human, plasma, po, 340 mg, Arm II PO BID 340 mg, day 15, N=1, read-out: Tmax) of 10 h, a Tmax (human, plasma, po, Arm II PO BID all doses, day 1, N=26, read-out: Tmax) of 9.2 ± 5 h and a Tmax (human, plasma, po, Arm II PO BID all doses, day 15, N=22, read-out: Tmax) of 9.7 ± 6.6 h.
